US20070003640A1, “Process for controlling the isomerization of (-)-epicatechin and (+)-catechin in edible products” (priority 2005, published 2007)

Experiment: Isomerization of (+)-catechin to (+)-epicatechin
Assay type: physicochemical
Conditions: equilibrium mixture from isomerization of (+)-catechin
From the text: While the above examples were specifically directed to the isomerization of (−)-epicatechin to (−)-catechin, it will be understood that the same processes can and will result in the isomerization of (+)-catechin to (+)-epicatechin. It will further be understood that the kinetics for the isomerization of (+)-catechin to (+)-epicatechin are similar to those for the isomerization of (−)-epicatechin to (−)-catechin, viz., the equilibrium point for a given set of temperature and pH parameters is essentially the same for either isomerization, and the equilibrium mixture resulting from the isomerization of (+)-catechin is about 70% (+)-catechin and about 30% (+)-epicatechin, with a molar ratio of (+)-epicatechin to (+)-catechin of about 1:2. Indeed, we have observed that the isomerization of (+)-catechin to (+)-epicatechin favors the same equilibrium point as the isomerization of (−)-epicatechin to (−)-catechin, that is, the molar ration of 1:2 (+)-epicatechin:(+)-catechin.

Oc1cc(O)c2c(c1)O[C@H](c1ccc(O)c(O)c1)[C@@H](O)C2 [(+)-catechin]
(+)-catechin in equilibrium mixture: about 70% | (+)-epicatechin in equilibrium mixture: about 30%
